Results: US7033593B2, “Immunogen comprising an HIV envelope protein, a ligand and H2 peptide” (priority 2000, dated 2006)
“Also recorded” adds a separate entry of the source. Like-named read-outs stand apart in the source and are kept apart here. No end group written: not given here.

Tests used:
[1] = tested on: CD4-gp140 complex (89.6 gp140 oligomers); details: on CD4-gp140 complex
Method: FIG. 10C. CD4-gp140 complexes (indicated by arrow) were first formed by injecting soluble 89.6 gp140 oligomers over a CD4-immobilized surface. Then the CCR5 N-terminal peptide (D1) was injected to monitor its binding to CD4-gp140 complexes.
FIG. 10D. An overlay of the binding curves of CCR5 N-terminal peptide, D1, binding to 89.6 gp140 oligomers in the presence and absence of CD4. […] To ensure that all gp140 molecules were bound to CD4, cleaved gp140 proteins were captured on a CD4 immobilized sensor surface (RU=530), and soluble 89.6 gp140 proteins were directly immobilized (RU=3300) on an adjacent flow cell of the same sensor chip.
(§1) SPR biosensor measurements were determined on a BIACORE 3000 (BIACORE Inc., Uppsala, Sweden) instrument. […] Binding of proteins and peptides was monitored in real-time at 25° C. and with a continuous flow of PBS, pH 7.4 at […]. Analyte (proteins and peptides) were removed and the sensor surfaces were regenerated following each cycle of binding by single or duplicate […] of regeneration solution (10 mM glycine-HCl, pH 2.5 or 10 mM NaOH).
(§2) All analyses were performed using the non-linear fit method of O'Shannessy et al. (O'Shannessy et al, Anal. Biochem. 205:132–136 (1992)) and the BIAevaluation 3.0 software (BIACORE Inc). Rate and equilibrium constants were derived from curve fitting to the Langmuir equation for a simple bimolecular interaction (A+B=AB).

[2] = biological target: cleaved gp140 oligomers (HIV 89.6) (Human immunodeficiency virus type 1 group M subtype B, UniProt Q73372); experiment: biochemical; format: binding
Sequence of cleaved gp140 oligomers (HIV 89.6) (Q73372 32-681): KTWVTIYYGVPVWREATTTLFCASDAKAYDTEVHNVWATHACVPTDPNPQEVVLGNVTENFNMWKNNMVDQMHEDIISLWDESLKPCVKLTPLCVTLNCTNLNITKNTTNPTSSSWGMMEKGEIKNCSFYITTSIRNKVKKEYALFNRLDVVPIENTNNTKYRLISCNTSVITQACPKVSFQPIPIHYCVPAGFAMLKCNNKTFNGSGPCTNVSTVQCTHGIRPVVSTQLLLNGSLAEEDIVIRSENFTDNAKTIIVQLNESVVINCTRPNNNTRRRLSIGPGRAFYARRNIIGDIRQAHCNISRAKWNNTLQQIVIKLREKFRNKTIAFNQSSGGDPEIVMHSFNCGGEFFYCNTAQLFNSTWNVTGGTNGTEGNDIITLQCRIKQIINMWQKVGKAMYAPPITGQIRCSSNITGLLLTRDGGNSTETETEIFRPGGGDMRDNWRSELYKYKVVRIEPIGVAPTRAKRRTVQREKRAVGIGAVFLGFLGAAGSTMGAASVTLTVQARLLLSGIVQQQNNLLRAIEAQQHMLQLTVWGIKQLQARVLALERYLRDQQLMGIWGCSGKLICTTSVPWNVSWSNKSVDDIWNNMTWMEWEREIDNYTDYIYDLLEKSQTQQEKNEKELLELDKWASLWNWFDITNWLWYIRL

A32-gp120 (89.6 gp120) = A32-gp120 (89.6 gp120) (Human immunodeficiency virus type 1 group M subtype B, UniProt Q73372); details: DP178 pre-incubated with peptide
Excerpt: FIGS. 31A–31F. […] Data are representative of 3 separate experiments performed. Data presented for C4-V389.6P and C4-V3MN are taken from two separate experiments. (FIG. 31F) Schematic.
The gp120 C4 region is centrally located within the CCR5 binding site in the β20–β21 strands of the gp120 bridging sheet (Wyatt et al, J. Virol. 69:5723–5733 (1995)).

[3] = tested on: HIV-1 induced syncytia formation; experiment: HIV-1 induced syncytia formation; format: cell-based; details: 50–200 μg/ml
[4] = biological target: sCD4 ligated gp120 in the context of membrane bound envelope; details: Hoffman et al 2000; read-out: affinity; cited from earlier work
sCD4 = biological target: T1, sCD4 (Homo sapiens, UniProt P01730); format: binding; details: SPR
T1 construct: Soluble CD4 (sCD4) was produced by Progenics, Tarrytown, N.Y; purchased Progenics (provided by the Division of AIDS, NIAID, NIH)

HIV-1 Env 89.6 gp120 = HIV-1 Env 89.6 gp120 (Human immunodeficiency virus type 1 group M subtype B, UniProt Q73372); experiment: biochemical; format: binding, HIV-1 89.6
Sequence of HIV-1 Env 89.6 gp120 (Q73372 32-508): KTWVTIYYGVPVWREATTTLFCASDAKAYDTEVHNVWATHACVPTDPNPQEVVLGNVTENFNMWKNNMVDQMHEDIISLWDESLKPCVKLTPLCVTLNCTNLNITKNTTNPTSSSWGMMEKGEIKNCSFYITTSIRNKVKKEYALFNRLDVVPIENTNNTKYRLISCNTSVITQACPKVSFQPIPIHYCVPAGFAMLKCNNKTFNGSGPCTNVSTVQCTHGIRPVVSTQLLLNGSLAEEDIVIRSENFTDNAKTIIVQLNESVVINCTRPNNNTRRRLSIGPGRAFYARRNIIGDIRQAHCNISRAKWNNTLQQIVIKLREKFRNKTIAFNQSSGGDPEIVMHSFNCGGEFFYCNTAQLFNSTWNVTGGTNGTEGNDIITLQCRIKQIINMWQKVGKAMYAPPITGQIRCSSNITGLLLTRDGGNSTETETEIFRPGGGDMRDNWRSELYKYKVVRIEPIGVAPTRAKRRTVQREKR

[5] = biological target: T8-gp120 (HIV 89.6 gp120) (Human immunodeficiency virus type 1 group M subtype B, UniProt Q73372); format: binding; details: SPR
Sequence of T8-gp120 (HIV 89.6 gp120) (Q73372 32-508): as above

[6] = biological target: sCD4-gp120 (HIV 89.6 gp120) (Human immunodeficiency virus type 1 group M subtype B, UniProt Q73372); format: binding
Sequence of sCD4-gp120 (HIV 89.6 gp120) (Q73372 32-508): as above

[7] = tested on: T8-gp140 (HIV 89.6 gp140); details: SPR
Sequence of T8-gp140 (HIV 89.6 gp140) (Q73372 32-508): as above
Sequence of T8-gp140 (HIV 89.6 gp140) (Q73372 509-680): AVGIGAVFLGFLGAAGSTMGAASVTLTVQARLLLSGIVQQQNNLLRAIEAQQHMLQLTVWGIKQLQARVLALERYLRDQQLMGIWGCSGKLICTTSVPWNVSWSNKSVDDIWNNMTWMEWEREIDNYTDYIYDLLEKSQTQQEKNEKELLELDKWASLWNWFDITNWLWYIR
Method: FIG. 14A. […] FIGS. 14B and 14C. […] After stabilization of gp140 capture, either the 19b (anti-gp120 V3) or 2F5 (anti-gp41) antibodies (300 μg/ml) were injected to assess the relative amounts of gp120 and gp41 on both surfaces. FIGS. 14D–14F.
(§3) A blank chip served as an in-line reference surface for subtraction of non-specific binding and bulk responses.
(§4) Surface Plasmon Resonance Biosensor Measurements. SPR biosensor measurements were determined on a BIACORE 3000 (BIACORE Inc., Uppsala, Sweden) instrument. […] A blank in-line reference surface (activated and de-activated for amine coupling) was used to subtract non-specific or bulk responses. Binding of proteins and peptides (biotinylated or free DP178, T649Q26L, DP178-scrambled) was monitored in real-time at 25° C. with a continuous flow of PBS (150 mM NaCl, 0.005% surfactant p20), pH 7.4 at 10–30 μl/min. Analyte (proteins and peptides) were removed and the sensor surfaces were regenerated following each cycle of binding by single or duplicate 5–10 μl pulses of regeneration solution (10 mM glycine-HCl, pH 2.5 or 10 mM NaOH).

[8] = tested on: sCD4-gp140 (HIV 89.6 gp140); experiment: SPR binding of HR-2 peptides to sCD4-gp140 complex; details: SPR
Method: as §1, §2, §3, §4

Substance: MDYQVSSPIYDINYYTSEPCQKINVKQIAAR [CCR5-D1]
- ka [1]: 9000 M⁻¹ s⁻¹
- kd [1]: 0.00256 s⁻¹
- Kd ([1]; read-out: apparent Kd): 280 nM
- Kd [2]: 1000 nM
- binding to cleaved gp140 (in words) ([2]; absence of CD4): Low levels of constitutive binding
- kd (off-rate) ([2]; absence of CD4): 0.01 s⁻¹

Substance: KQIINMWQEVGKAMYACTRPNYNKRKRIHIGPGRAFYTTK [C4-V3MN]
- blocking of DP178 binding (in words) (A32-gp120 (89.6 gp120)): strong blocking

Substance: IKQIINMWQKVGKAMYAPPIS [C4]
- effect on DP178 inhibition of syncytia formation (in words) [3]: can reverse DP178 inhibition
- mean % blocking of DP178 binding to 89.6 gp120 (A32-gp120 (89.6 gp120); n=3): 27%

Substance: native CCR5: native CCR5 co-receptor, literature value
- Kd [4]: 500000 nM

Substance: 89.6 gp120: soluble gp120 envelope protein of HIV 89.6 primary isolate (Clade B)
- off-rate (kd) (sCD4; immobilized CD4): 0.00011 s⁻¹
- off-rate (sCD4; immobilized sCD4, preliminary studies): 1.1×10^−4 s^1
- binding to sCD4 (in words) (sCD4; listed as HIV 89.6 gp120): most stable binding to sCD4
- binding to sCD4 (in words) (sCD4; listed as HIV89.6 gp120): bound sCD4 most avidly

Substance: NNLLRAIEAQQHLLQLTVWGIKQLQARILAVERYLKDQ [DP107]
- binding to gp120 bound to CD4 or A32 (in words) (HIV-1 Env 89.6 gp120): no binding was observed

Substance: KQIINMWQEVGKAMYATRPNNNTRERLSIGPGRAFYARR [C4-V389.6]
- blocking of DP178 binding (in words) (A32-gp120 (89.6 gp120)): strong blocking

Substance: 89.6 gp140: HIV 89.6 gp140 envelope, about 50:50 cleaved and uncleaved
- binding to sCD4 (in words) (sCD4): bound sCD4 well

Substance: WMEWDREINNYTSLIHSLIEESQNQLEKNEQELLEL [T649Q26L]
- binding to gp120 on T8 mab surface (in words) [5]: neither HR-2 peptide bound
- binding to sCD4-gp120 (in words) [6]: specifically induced by sCD4
- binding to T8-gp140 surface (in words) [7]: no binding
- binding to sCD4-gp140 surface (in words) [8]: much higher binding; also recorded: marked binding

Substance: TRPNNNTRERLSIGPGRAFYARR [V3]
- blocking of DP178 binding (in words) (A32-gp120 (89.6 gp120)): no significant blocking
